For data set [1], the system named is healthy skin (epidermal keratinocytes). The class given is in vivo, mice (SKH-1). Particulars: occlusive patch 30 h. The source says:
Apoptosis is a fundamental event in cell development (proliferation). The visualisation of apoptosis and the subsequent healing phenomenon reflects the efficacy of medicaments in the treatment of precancerous and cancerous cells. Picato® (0.015% ingenol mebutate) is a product on the market which is indicated for the treatment of actinic keratosis. Picato® is known to induce cell death by a necrotic effect that rapidly eliminates dead cells, followed by a healing phase. To evaluate the “apoptotic” power of celastrol on skin cells (epidermal keratinocytes), we compared the apoptotic effect induced by the topical application of celastrol compared to that of a product already on the market.
(§1) Non-inbred hairless SKH-1 strain mice are most commonly used in preclinical dermatological research. These non-pigmented and immunocompetent mice allow easy manipulation of the skin, application of topical agents, exposure to UV radiation and easy visualisation of the cutaneous response. Wound healing, acute biological photo responses and skin carcinogenesis are well characterised in this mouse strain. In addition, the tumours induced in these mice resemble, at both the molecular and the morphological level, UV-induced malignant skin tumours in humans. In this study on healthy skin, 6- to 8-week-old SKH-1 females (18 to 20 grams; Charles River Laboratories) are treated topically with the various compounds.
(§2) Picato® (0.015% ingenol mebutate), used in humans to treat actinic keratosis lesions, was administered topically to the animals (2 to 3 animals per group) for 24 hours under a 19-mm-diameter, i.e., 2.83 cm^2, occlusive patch (Hill Top Research, USA). The patch is loaded with 200 μL of Picato® cream, i.e. 30 μg of active ingredient. The treated skin area is delimited by tattooing on each mouse and the patch is held on the mouse using Tegaderm™ film and Omnifix® and Elastoplast™ adhesive tape. The occlusive dressing is removed after 24 hours, and the animals are followed clinically for 3 to 4 weeks.
Celastrol (Euromedex) is formulated in a vehicle consisting of 5% DMSO-70% glycerol-25% water. The pH is adjusted by adding soda to around 8-8.5 in order to completely solubilise the powder. The initial concentration is 10 mg/mL then serial dilutions in the vehicle yield concentrations of 5 and 2.5 mg/mL. Celastrol is applied topically for 30 hours under a 19-mm-diameter occlusive patch. The patches are loaded with 200 μL of the various celastrol solutions, i.e. 2000 μg, 1000 μg or 500 μg of active ingredient.
The treated skin area is delimited by tattooing on each mouse and the patch is held on the mouse using Tegaderm™ film and Omnifix® and Elastoplast™ adhesive tape. The occlusive bandage is removed after 30 hours and the animals are followed clinically for 3 to 4 weeks.
The animals are weighed twice per week. The treated area of each animal is photographed two to three times per week in order to follow the progression of the cutaneous reaction and healing.

Data set [2] in a line: Clinical monitoring: body weight of topically treated SKH-1 mice. The class given is in vivo, mice (SKH-1).
Excerpt: as §1
as §2, with “weeks. […]” for “weeks.”

On to `CC1=C(O)C(=O)C=C2C1=CC=C1[C@@]2(C)CC[C@@]2(C)[C@@H]3C[C@](C)(C(=O)O)CC[C@]3(C)CC[C@]12C` [celastrol], for which, in data set [1] (celastrol 1000 μg and 2000 μg doses), the “scar area on day 28” value is given as “slight hypertrophy of the scar area”. Further, the “cutaneous reaction first visible” value in data set [1] (celastrol 500, 1000, 2000 μg, 24 hours after discontinuation) amounted to 3 days. Also, in data set [1] (celastrol 500-2000 μg, dose-dependent), the healing process starts was 7 days. The “depth of the pro-apoptotic action” value in data set [1] (celastrol 500-2000 μg, localised in the epidermis) is on record as “superficial”. For the same molecule, in data set [1] (celastrol topical, dose-dependent), the “dose from which apoptosis of epidermal cells is induced in vivo” value is given as at least 500 μg/application. Also, the haemorrhagic zones entry in data set [1] (celastrol, even at the highest dose (2000 μg)) is recorded as “no haemorrhagic zones are observed”. For the same molecule, in data set [2] (topical route at the doses used, SKH-1 mice), the “systemic toxicity / tolerance” value was “no systemic toxicity”. Moreover, in data set [2] (topical, occlusive patch, Picato 200 μL (30 μg) 24 h, celastrol 500-2000 μg 30 h, weighed twice per week), the “effect on the weight of SKH-1 mice” value is recorded as “no effect on the weight”.

The record behind these values is patent US10881702B2, “Celastrol and derivatives thereof for the treatment of tumours and precancerous diseases of the skin” (PIERRE FABRE MEDICAMENT, priority 2016, dated 2021).
